Source: BigSolDB 2.1

CN1CC(O)c2cc(N=NC(N)=O)c(O)cc21 (centres undefined)
solubility (mole fraction) (in DMF, 278.15 K): 0.00095 | solubility (mole fraction) (in DMF, 283.15 K): 0.00115 | solubility (mole fraction) (in DMF, 288.15 K): 0.00129 | solubility (mole fraction) (in DMF, 293.15 K): 0.0015 | solubility (mole fraction) (in DMF, 298.15 K): 0.00177 | solubility (mole fraction) (in DMF, 303.15 K): 0.00202 | solubility (mole fraction) (in DMF, 308.15 K): 0.00231 | solubility (mole fraction) (in DMF, 313.15 K): 0.00277 | solubility (mole fraction) (in DMF, 318.15 K): 0.00335 | solubility (mole fraction) (in DMSO, 278.15 K): 0.00619 | solubility (mole fraction) (in DMSO, 283.15 K): 0.0073 | solubility (mole fraction) (in DMSO, 288.15 K): 0.00863 | solubility (mole fraction) (in DMSO, 293.15 K): 0.01 | solubility (mole fraction) (in DMSO, 298.15 K): 0.0113 | solubility (mole fraction) (in DMSO, 303.15 K): 0.0129 | solubility (mole fraction) (in DMSO, 308.15 K): 0.0146 | solubility (mole fraction) (in DMSO, 313.15 K): 0.0159 | solubility (mole fraction) (in DMSO, 318.15 K): 0.0174 | solubility (mole fraction) (in ethanol, 278.15 K): 1.8e-05 | solubility (mole fraction) (in ethanol, 283.15 K): 2.15e-05 | solubility (mole fraction) (in ethanol, 288.15 K): 2.42e-05 | solubility (mole fraction) (in ethanol, 293.15 K): 3.02e-05 | solubility (mole fraction) (in ethanol, 298.15 K): 3.67e-05 | solubility (mole fraction) (in ethanol, 303.15 K): 4.29e-05 | solubility (mole fraction) (in ethanol, 308.15 K): 5.24e-05 | solubility (mole fraction) (in ethanol, 313.15 K): 6.97e-05 | solubility (mole fraction) (in ethanol, 318.15 K): 8.54e-05 | solubility (mole fraction) (in methanol, 278.15 K): 3.56e-05 | solubility (mole fraction) (in methanol, 283.15 K): 4.38e-05 | solubility (mole fraction) (in methanol, 288.15 K): 5.31e-05 | solubility (mole fraction) (in methanol, 293.15 K): 6.89e-05 | solubility (mole fraction) (in methanol, 298.15 K): 8.35e-05 | solubility (mole fraction) (in methanol, 303.15 K): 9.97e-05 | solubility (mole fraction) (in methanol, 308.15 K): 0.00012 | solubility (mole fraction) (in methanol, 313.15 K): 0.000147 | solubility (mole fraction) (in methanol, 318.15 K): 0.000173 | solubility (mole fraction) (in n-propanol, 278.15 K): 1.75e-05 | solubility (mole fraction) (in n-propanol, 283.15 K): 2.05e-05 | solubility (mole fraction) (in n-propanol, 288.15 K): 2.41e-05 | solubility (mole fraction) (in n-propanol, 293.15 K): 2.77e-05 | solubility (mole fraction) (in n-propanol, 298.15 K): 3.18e-05 | solubility (mole fraction) (in n-propanol, 303.15 K): 3.66e-05 | solubility (mole fraction) (in n-propanol, 308.15 K): 4.5e-05 | solubility (mole fraction) (in n-propanol, 313.15 K): 5.92e-05 | solubility (mole fraction) (in n-propanol, 318.15 K): 7.31e-05 | solubility (mole fraction) (in water, 278.15 K): 2.81e-05 | solubility (mole fraction) (in water, 283.15 K): 3.26e-05 | solubility (mole fraction) (in water, 288.15 K): 3.78e-05 | solubility (mole fraction) (in water, 293.15 K): 4.4e-05 | solubility (mole fraction) (in water, 298.15 K): 5.15e-05 | solubility (mole fraction) (in water, 303.15 K): 6.03e-05 | solubility (mole fraction) (in water, 308.15 K): 6.87e-05 | solubility (mole fraction) (in water, 313.15 K): 7.98e-05 | solubility (mole fraction) (in water, 318.15 K): 9.69e-05
